From patent publication US9278958B2, “Anti-cancer compounds” (KATHOLIEKE UNIVERSITEIT LEUVEN, priority 2012, dated 2016)
Read-outs that look alike come from different tables or passages of the source.

Key:
CEM cells = experiment: Cytostatic assay, CEM; format: cell-based; details: Homo sapiens, CCRF-CEM
Method in brief: (§1)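 Read-out is the cell number after incubation, counted electronically (Coulter). Cultures started from 5-7.5×10^4 cells per well exposed to compound, kept 48 h to 96 h at 37° C under humidified CO2 control.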

Molt4/C8 cells = experiment: Cytostatic assay, Molt4/C8; format: cell-based; details: Table 2
Method in brief: as §1

Sup T1 cells = experiment: Cytostatic assay, Sup T1; format: cell-based; details: Homo sapiens, Table 2, read-out: Cytostatic activity (μM) Sup T 1
Method in brief: as §1

MT-2 cells = experiment: Cytostatic assay, MT-2; format: cell-based; details: Homo sapiens, MT2; Table 2
Method in brief: as §1

C8166 cells = experiment: Cytostatic assay, C8166; format: cell-based; details: Homo sapiens, Table 2
Method in brief: as §1

HUT-78 cells = experiment: Cytostatic assay, HUT-78; format: cell-based; details: Homo sapiens, HuT78; Table 2
Method in brief: as §1

MT-4 cells = experiment: Cytostatic assay, MT-4; format: cell-based; details: Homo sapiens, MT4; Table 2
Method in brief: as §1

[1] = tested on: HL60, human leukemia cells; experiment: Cytostatic assay, HL-60; format: cell-based; details: Table 2
Method in brief: as §1

[2] = tested on: U937, human monocytic cells; experiment: Cytostatic assay, U937; format: cell-based; details: U-937, Table 2
Method in brief: as §1

[3] = tested on: THP-1, human monocytic cells; experiment: Cytostatic assay, THP-1; format: cell-based; details: Table 2
Method in brief: as §1

[4] = tested on: Raji, human B-lymphoma cells; experiment: Cytostatic assay, Raji; format: cell-based; details: Table 2
Method in brief: as §1

[5] = tested on: Daudi, human B-lymphoma cells; experiment: Cytostatic assay, Daudi; format: cell-based; details: Table 2
Experimental: (§2) To each well of a 96-well microtiter plate were added 5-7.5×10^4 cells and a given amount of the test compound. The cells were allowed to proliferate for 48 h to 96 h (depending on the nature of the cell line) at 37° C. in a humidified CO2-controlled atmosphere. At the end of the incubation period, the cells were counted in a Coulter Counter (Coulter Electronics Ltd, Harpenden Herts, United Kingdom).

[6] = tested on: HOS CD4+ osteosarcoma cells; experiment: Cytostatic assay, HOS CD4+; format: cell-based; details: Homo sapiens; Table 3
Experimental: as §2

[7] = tested on: OST TK- osteosarcoma cells; experiment: Cytostatic assay, OST TK-; format: cell-based; details: Homo sapiens; Table 3
Method in brief: as §1

[8] = tested on: MCF-7 mammary carcinoma cells; experiment: Cytostatic assay, MCF-7; format: cell-based; details: Homo sapiens, MCF7; Table 3
Method in brief: as §1

[9] = tested on: FM3A mammary carcinoma cells; experiment: Cytostatic assay, FM3A; format: cell-based, murine; details: Mus musculus, Table 3
Method in brief: as §1

[10] = tested on: HeLa cervix carcinoma cells; experiment: Cytostatic assay, HeLa; format: cell-based, human; details: Homo sapiens; Table 3; read-out: Cytostatic activity (μM) Hela
Method in brief: as §1

[11] = tested on: Caki-1 kidney carcinoma cells; experiment: Cytostatic assay, Caki-1; format: cell-based; details: Homo sapiens, Table 3
Method in brief: as §1

[12] = tested on: Caki-2 kidney carcinoma cells; experiment: Cytostatic assay, Caki-2; format: cell-based; details: Homo sapiens, Table 3
Method in brief: as §1

[13] = tested on: 293T embryonic kidney cells; experiment: Cytostatic assay, 293T; format: cell-based; details: Homo sapiens, HEK-293T; Table 3
Method in brief: as §1

[14] = tested on: HT29 colorectal carcinoma cells; experiment: Cytostatic assay, HT29; format: cell-based; details: Homo sapiens, HT-29; Table 3
Method in brief: as §1

U87 glioma cells = experiment: Cytostatic assay, U87; format: cell-based; details: Homo sapiens, U-87 MG; Table 3
Method in brief: as §1

[15] = tested on: U87 CD4+/CXCR4+/CCR5+ glioma cells; experiment: Cytostatic assay, U87 CD4+/CXCR4+/CCR5+; format: cell-based; details: Homo sapiens, Glioma cell; Table 3
Experimental: as §2

[16] = tested on: HEL embryonic lung fibroblast cells; experiment: Cytostatic assay, HEL; format: cell-based; details: Homo sapiens, Table 3
Method in brief: as §1

[17] = tested on: BAEC aortic endothelial cells; experiment: Cytostatic assay, BAEC; format: cell-based, bovine; details: Bos taurus, Table 3
Method in brief: as §1

[18] = tested on: PC3 (rega) prostate cancer cells; experiment: Cytostatic assay, PC3 (rega); format: cell-based; details: Table 4
Method in brief: as §1

BPH-1 (UZ) = experiment: Cytostatic assay, BPH-1 (UZ); format: cell-based; details: Homo sapiens, Table 4
Method in brief: as §1

[19] = tested on: DU145 (UZ) prostate cancer cells; experiment: Cytostatic assay, DU145 (UZ); format: cell-based; details: Homo sapiens, DU-145; Table 4
Method in brief: as §1

[20] = tested on: PC-3 (UZ) prostate cancer cells; experiment: Cytostatic assay, PC-3 (UZ); format: cell-based; details: Table 4
Method in brief: as §1

[21] = tested on: LNCaP (UZ) prostate cancer cells; experiment: Cytostatic assay, LNCaP (UZ); format: cell-based; details: Homo sapiens, Table 4
Method in brief: as §1

[22] = tested on: PNT1A (UZ) prostate cells; experiment: Cytostatic assay, PNT1A (UZ); format: cell-based; details: Homo sapiens, Table 4
Method in brief: as §1

[23] = tested on: 22Rv1 (UZ) prostate cancer cells; experiment: Cytostatic assay, 22Rv1 (UZ); format: cell-based; details: Homo sapiens, Table 4
Method in brief: as §1

PLC/PRF/5 hepatoma cells = experiment: Cytostatic assay, PLC/PRF/5; format: cell-based; details: Homo sapiens, Table 4
Method in brief: as §1

HepG2C3A hepatoma cells = experiment: Cytostatic assay, HepG2C3A; format: cell-based; details: Homo sapiens, HepG2/C3A; Table 4
Method in brief: as §1

Huh-7 hepatoma cells = experiment: Cytostatic assay, Huh-7; format: cell-based; details: Homo sapiens, Table 4
Method in brief: as §1

[24] = tested on: DNA synthesis in CEM cells; experiment: Antimetabolic activity assay, [CH3-3H]dThd incorporation (DNA synthesis), CEM; format: cell-based; details: Homo sapiens, CCRF-CEM, incorporation into TCA-insoluble material
Experimental: (§3) Radiolabeled precursors of DNA synthesis ([^3H-methyl]dThd), RNA synthesis ([5-^3H]Urd), and protein synthesis ([4,5-^3H]leu) were added to 10^5 CEM cell cultures in the 200 μl-wells of a microtiter plate at 1 μCi for each precursor in the presence of varying concentrations of the test compounds (5-fold dilution series). The cells were allowed to proliferate for 20 hrs at 37° C. in a humidified, CO2-controlled atmosphere. At the end of the incubation period, the contents of the wells were brought onto 25-mm glass fiber filters and further processed for measurement of acid-insoluble radioactivity.

[25] = tested on: DNA synthesis in Raji cells; experiment: Antimetabolic activity assay, [CH3-3H]dThd incorporation (DNA synthesis), Raji; format: cell-based; details: Homo sapiens, incorporation into TCA-insoluble material
Experimental: [The procedure below names another cell line; the source lists this cell line under the same test.] as §3

[26] = tested on: RNA synthesis in CEM cells; experiment: Antimetabolic activity assay, [5-3H]uridine incorporation (RNA synthesis), CEM; format: cell-based; details: Homo sapiens, CCRF-CEM, incorporation into TCA-insoluble material
Experimental: as §3

[27] = tested on: RNA synthesis in Raji cells; experiment: Antimetabolic activity assay, [5-3H]uridine incorporation (RNA synthesis), Raji; format: cell-based; details: Homo sapiens, incorporation into TCA-insoluble material
Experimental: [The procedure below names another cell line; the source lists this cell line under the same test.] as §3

[28] = tested on: protein synthesis in CEM cells; experiment: Antimetabolic activity assay, [4,5-3H]leucine incorporation (protein synthesis), CEM; format: cell-based; details: Homo sapiens, CCRF-CEM, incorporation into TCA-insoluble material
Experimental: as §3

[29] = tested on: protein synthesis in Raji cells; experiment: Antimetabolic activity assay, [4,5-3H]leucine incorporation (protein synthesis), Raji; format: cell-based; details: Homo sapiens, incorporation into TCA-insoluble material
Experimental: [The procedure below names another cell line; the source lists this cell line under the same test.] as §3

[30] = tested on: broad variety of tumor cell lines; experiment: Cytostatic assays, summary over the panel of cell lines (Tables 2-4); format: cell-based
Experimental: as §2

L1210 cells = experiment: Cytostatic assay, L1210; format: cell-based; details: Mus musculus, Table 2
Method in brief: as §1

[31] = Table 1a, read-out: IC50 μM (CEM)
[32] = Table 2, read-out: Cytostatic activity (μM) CEM

SMILES: COC(=O)c1cc(CCc2ccccc2OC)sc1N [TR567, 2-Amino-5-[2-(2-methoxy-phenyl)-ethyl]-thiophene-3-carboxylic acid methyl ester]
- IC50 (CEM cells; [31]): 1.8 µM
- IC50 (CEM cells; [32]): 1.8 ± 0.92 µM
- IC50 (Molt4/C8 cells): 0.81 ± 0.49 µM
- IC50 (Sup T1 cells): 1.5 µM
- IC50 (MT-2 cells): 2.1 ± 0.071 µM
- IC50 (C8166 cells): 3 ± 0.21 µM
- IC50 (HUT-78 cells): 13 ± 4.2 µM
- IC50 (MT-4 cells): 14 ± 2.8 µM
- IC50 [1]: 4 ± 3.3 µM
- IC50 [2]: 10 ± 0.85 µM
- IC50 [3]: 13 ± 1.4 µM
- IC50 [4]: 19 ± 4.2 µM
- IC50 [5]: 13 ± 0.71 µM
- IC50 [6]: 23 ± 4.2 µM
- IC50 [7]: 7.6 ± 2.4 µM
- IC50 [8]: 22 ± 3.5 µM
- IC50 [9]: 37 ± 0.71 µM
- IC50 [10]: 17 ± 2.1 µM
- IC50 [11]: 3.7 ± 1.8 µM
- IC50 [12]: 4.5 ± 1.9 µM
- IC50 [13]: 22 ± 15 µM
- IC50 [14]: 17 ± 7.8 µM
- IC50 (U87 glioma cells): 38 µM
- IC50 [15]: 32 ± 2.1 µM
- IC50 [16]: 20 ± 7.8 µM
- IC50 [17]: 20 ± 4.2 µM
- IC50 [18]: 0.71 ± 0.28 µM
- IC50 (BPH-1 (UZ)): 39 ± 2.8 µM
- IC50 [19]: 11 ± 7 µM
- IC50 [20]: 1.4 ± 0.071 µM
- IC50 [21]: 0.43 ± 0.14 µM
- IC50 [22]: 17 ± 2.8 µM
- IC50 [23]: 5.7 ± 2.8 µM
- IC50 (PLC/PRF/5 hepatoma cells): 18 ± 4.2 µM
- IC50 (HepG2C3A hepatoma cells): 8.6 ± 0.28 µM
- IC50 (Huh-7 hepatoma cells): 3.4 ± 1.2 µM
- IC50 [24]: 6.4 ± 4.1 µM
- IC50 [25]: 54 ± 8 µM
- IC50 [26]: 2.6 ± 0.6 µM
- IC50 [27]: 68 ± 8 µM
- IC50 [28]: 1.4 ± 0.9 µM
- IC50 [29]: 45 ± 8 µM
- IC50 ([30]; Homo sapiens, HuT78, range for the seven compounds, MT-4 and HUT-78 cells, read-out: IC50 range, cytostatic activity against MT-4 and HUT-78 cells): 8500 to 60000 nM
- IC50 ([30]; range for the seven compounds against the 5 tumor cell lines, read-out: IC50 range, cytostatic activity against CEM, Molt4/C8, Sup T1, MT-2 and C8166 cells): 220 to 3400 nM

SMILES: COc1ccc(OC)c(CCc2cc(C#N)c(N)s2)c1 [TR589, 2-Amino-5-[2-(2,5-dimethoxy-phenyl)-ethyl]-thiophene-3-carbonitrile]
- IC50 (CEM cells; [31]): 0.015 µM
- IC50 (CEM cells; [32]): 0.015 µM
- IC50 (Molt4/C8 cells): 0.058 ± 0.056 µM
- IC50 (Sup T1 cells): 0.017 ± 0.012 µM
- IC50 (MT-2 cells): 0.027 ± 0.001 µM
- IC50 (C8166 cells): 0.021 ± 0.009 µM
- IC50 (HUT-78 cells): 0.062 ± 0.039 µM
- IC50 (MT-4 cells): 0.086 ± 0.048 µM
- IC50 [1]: 0.024 ± 0.004 µM
- IC50 [2]: 0.036 ± 0.001 µM
- IC50 [3]: 0.022 ± 0.003 µM
- IC50 [4]: 0.063 ± 0.013 µM
- IC50 (L1210 cells): 0.064 ± 0.025 µM
- IC50 [8]: 0.026 ± 0.0014 µM
- IC50 [9]: 0.05 ± 0.046 µM
- IC50 [10]: 0.13 ± 0.06 µM
- IC50 [11]: 0.016 ± 0.001 µM
- IC50 [12]: 0.042 ± 0.004 µM
- IC50 [13]: < 0.032 µM
- IC50 [14]: 0.046 ± 0.012 µM
- IC50 (U87 glioma cells): 0.038 ± 0.008 µM
- IC50 [16]: < 0.032 µM
- IC50 [17]: < 0.032 µM
- IC50 [18]: < 0.032 µM
- IC50 (BPH-1 (UZ)): < 0.032 µM
- IC50 [19]: 0.061 ± 0.016 µM
- IC50 [20]: < 0.032 µM
- IC50 [21]: < 0.032 µM
- IC50 [22]: < 0.032 µM
- IC50 [23]: < 0.032 µM
- IC50 (PLC/PRF/5 hepatoma cells): 0.041 ± 0.013 µM
- IC50 (HepG2C3A hepatoma cells): 0.29 ± 0.18 µM
- IC50 (Huh-7 hepatoma cells): < 0.16 µM
- IC50 [24]: > 100 µM
- IC50 [25]: ≥ 100 µM
- IC50 [26]: 44 ± 11 µM
- IC50 [27]: 90 ± 14 µM
- IC50 [28]: 20 µM
- IC50 [29]: 39 ± 36 µM
- fold more cytostatic than the corresponding -COOEt-containing compound 16b [30]: 50 fold
- IC50 ([30]; range over the cell lines of Tables 2-4, read-out: IC50 range (antiproliferative activity)): 20 to 130 nM
